Entries after “also recorded” stand apart in the source; their conditions may differ.
Legend:
[1] = Identification of DHM metabolites in serum and brain by UPLC-QqQ/MS; format: in vivo, mice; settings: for Detection of metabolite in brain samples: male and female mice 15 min post DHM IP 50 mg/kg; for Detection of metabolite in serum: mice, following DHM 50 mg/kg IP and PO
Procedure: Eight-week-old male and female C57BL/6J mice (Jackson’s Laboratories, Bar Harbor, ME, USA) were housed 4 mice to a cage (separated by sex) and maintained on 12-h light, 12-h dark cycles (lights on at 0700 h) in the animal facility at the Department of Animal Sciences, Rutgers University. Following 1-week acclimation, animals were given ad libitum access to water and a polyphenol-free diet (PFD; 3.82 kcal/g, 10% fat, 20% protein, 70% carbohydrate; D12450H; Research Diets, Inc., New Brunswick, NJ, USA) for at least 10 days. For PK studies, after an overnight fast, mice were administered 50 mg/kg DHM (dissolved in 0.9% saline with 10% DMSO) by either IP injection or oral gavage. Oral gavage was performed using single-use, sterile plastic feeding tubes for mice (20 ga × 30 mm; cat# FTP-20-30, Instech Laboratories, (Plymouth Meeting, PA, USA). Mice were deeply anesthetized with 5% isoflurane mixed with oxygen, and blood was collected by cardiac puncture. Following cardiac puncture, animals were exsanguinated and transcardial perfusion with 0.9% saline was performed to ensure blood removal from the brain tissue. Blood and brain samples were collected from a total of 85 mice at 0.25, 0.75, 1.5, 3, 6, 12, 24 h (3–4 mice for each sex and timepoint). Tissues were immediately homogenized with 0.2% formic acid at 1:2 (w/v), and frozen at −80 °C until analysis. Blood was centrifuged at 3000× g for 10 min at 4 °C to isolate serum. For efficacy studies, mice (n = 8/sex) were fasted at 5 h prior to Ethanol gavage 5 g/kg (37% Ethanol in water). DHM 50 mg/kg IP (dissolved in 0.9% saline with 10% DMSO) was administered at 0, 15, 45, 90 and 180 min prior to Ethanol oral gavage. Each mouse was tested at each time point 7 days apart over 6-week period. At the time of Ethanol gavage, mice were placed in oversized conical holders (L: 152 mm X W: 37 mm) and observed for ability to return upright upon being placed in a supine position. Duration of LORR was determined by ability to return upright 3 times within 30 s. To determine whether ethanol-induced tolerance developed, one week (Week 1; Baseline) prior to the 6-week repeated DHM dosing study all mice were oral dose with ethanol (5 g/kg) without any IP injection and LORR was measured. Mice were then re-tested in a similar fashion with oral ethanol 1 week after the DHM 6-week period (Week 8; Post). […] All animal studies were approved by the Institutional Animal Care and Use Committee of Rutgers University (Bello; PROTO999900014, OLAW #A3262-01, 15 March 2017) and complied with NIH Guide for the Care and Use of Laboratory Animals.
All serum samples were stored at −80 °C and conditioned to room temperature prior to analysis. An aliquot of 100 µL of serum, 20 µL 4M HCl, and 50 µL of internal standard (IS) solution (417 ng/mL isoquercetin in EtOAc) were combined in an Eppendorf tube. An aliquot of 500 µL of EtOAc was added and samples were vortexed for 30 s. Samples were then centrifuged at 3000× g for 2 min and the supernatant transferred to a glass vial. Samples were extracted 2 more times with EtOAc and the supernatant added to the corresponding vial containing 10 µL of 2% ascorbic acid in methanol (MeOH). Samples were then dried under vacuum, reconstituted with 100 µL of 45% MeOH in water with 0.1% formic acid (FA), centrifuged at 16,000× g for 10 min and transferred to an HPLC vial for analysis.
Whole brain samples were homogenized in FA. All brain homogenates were stored at −80 °C and conditioned to room temperature prior to analysis. An aliquot of 300 µL of brain homogenate was added to 50 µL IS solution (417 ng/mL in EtOAc) and 500 µL of EtOAc in an Eppendorf tube. Samples were then vortexed for 30 s and sonicated for 1 min. Samples were centrifuged for 2 min at 3000× g and the supernatant transferred to a glass vial with 10 µL of 2% ascorbic acid in methanol. Samples were extracted two more times with 500 µL EtOAc and the supernatant transferred to the corresponding vial and dried under vacuum. […]

[2] = target: T1, α5β3γ2 GABAA receptors (Homo sapiens, UniProt P18507+P28472+P31644); assay: Two-electrode voltage clamp electrophysiology in Xenopus oocytes in the presence of GABA; format: cell-based; settings: compound 10 µM, GABA 10 µM
T1 construct: expressed in transfected cells; host or cells: Xenopus oocytes (injected with cDNA)
Procedure: Xenopus oocytes were stored in incubation media (pH 7.5), consisting of ND96 supplemented with 2 mM sodium pyruvate, […] gentamycin, and 10 mL heat inactivated HyClone horse serum. Stage 4 to 5 oocytes were injected with 40 nL of cDNA coding for α5, β3, and γ2 subunits in a ratio of 1:1:10, utilizing a Drummond Nanoject III. Injected oocytes were stored at 18 °C and used in electrophysiology studies within 2–7 days of injection.
Whole cell two-electrode voltage clamp (TEVC) recording were conducted on oocytes in the presence of GABA, according to previously reported methods. Oocytes were voltage clamped at a membrane potential of −70 mV. The oocyte recording chamber was continuously perfused with modified bath solution (MBS) with select compound (10 µM) and GABA (10 µM), with a final concentration of 1% DMSO [22, 44]. […] Oocytes were perfused at a rate of 3 mL/min. Electrophysiology recordings were conducted in triplicate compound for each compound. The change of GABAAR activity was determined by comparison of GABAAR potentiation to the EC20 with control saline in the presence of GABA.
Pharmacokinetic parameters were calculated using noncompartmental analysis. Elimination half-life (T1/2) was calculated with R software from the linear regression of the terminal phase of the log serum concentration-time curve. The AUC0→24 was calculated with OriginLab software by trapezoidal analysis of the serum concentration-time plot. Cmax and Tmax were determined directly from observed data. Data are expressed as mean ± SEM. Statistical significance between AUC0→24 among test groups was calculated with an independent t-test (GraphPad software, San Diego, CA, USA). Time to LORR was analyzed by repeated measured ANOVA. Tolerance was determined by mean split in LORR response and confirmed with paired t-test (Week 1 vs. Week 8). Statistical significance of serum concentrations for individual time points was calculated using a two-way analysis of variance (ANOVA) analysis. Post hoc Bonferroni tests were performed when justified. Statistical significance of electrophysiology results compound GABAergic modulation was determined using a paired t-test (Vehicle control vs. Compound, GraphPad software, San Diego CA, USA). p < 0.05 was considered significant.

T1 sequence (P31644 32-462): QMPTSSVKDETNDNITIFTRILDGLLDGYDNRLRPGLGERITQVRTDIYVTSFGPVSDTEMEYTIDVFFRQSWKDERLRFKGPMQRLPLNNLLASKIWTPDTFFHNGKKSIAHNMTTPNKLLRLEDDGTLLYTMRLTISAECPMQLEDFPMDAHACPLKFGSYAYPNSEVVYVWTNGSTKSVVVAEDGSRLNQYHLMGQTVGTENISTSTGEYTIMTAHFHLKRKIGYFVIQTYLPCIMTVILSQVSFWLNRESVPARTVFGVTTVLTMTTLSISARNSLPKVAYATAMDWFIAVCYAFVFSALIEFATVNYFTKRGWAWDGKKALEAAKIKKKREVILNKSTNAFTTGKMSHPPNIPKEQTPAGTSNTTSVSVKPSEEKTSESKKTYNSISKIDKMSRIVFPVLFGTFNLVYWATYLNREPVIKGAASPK
T1 sequence (P28472 26-473): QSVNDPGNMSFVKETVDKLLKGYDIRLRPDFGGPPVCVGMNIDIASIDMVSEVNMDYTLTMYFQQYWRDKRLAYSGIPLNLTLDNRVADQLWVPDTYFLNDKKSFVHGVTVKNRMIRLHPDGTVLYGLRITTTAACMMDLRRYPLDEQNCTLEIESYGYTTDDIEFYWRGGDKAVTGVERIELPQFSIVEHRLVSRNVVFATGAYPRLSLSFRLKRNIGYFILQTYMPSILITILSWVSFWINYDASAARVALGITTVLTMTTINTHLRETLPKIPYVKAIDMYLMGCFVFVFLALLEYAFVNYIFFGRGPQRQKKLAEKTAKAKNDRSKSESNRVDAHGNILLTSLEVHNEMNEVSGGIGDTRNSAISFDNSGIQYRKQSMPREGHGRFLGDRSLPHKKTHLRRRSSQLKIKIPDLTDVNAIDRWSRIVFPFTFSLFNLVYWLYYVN
T1 sequence (P18507 40-475): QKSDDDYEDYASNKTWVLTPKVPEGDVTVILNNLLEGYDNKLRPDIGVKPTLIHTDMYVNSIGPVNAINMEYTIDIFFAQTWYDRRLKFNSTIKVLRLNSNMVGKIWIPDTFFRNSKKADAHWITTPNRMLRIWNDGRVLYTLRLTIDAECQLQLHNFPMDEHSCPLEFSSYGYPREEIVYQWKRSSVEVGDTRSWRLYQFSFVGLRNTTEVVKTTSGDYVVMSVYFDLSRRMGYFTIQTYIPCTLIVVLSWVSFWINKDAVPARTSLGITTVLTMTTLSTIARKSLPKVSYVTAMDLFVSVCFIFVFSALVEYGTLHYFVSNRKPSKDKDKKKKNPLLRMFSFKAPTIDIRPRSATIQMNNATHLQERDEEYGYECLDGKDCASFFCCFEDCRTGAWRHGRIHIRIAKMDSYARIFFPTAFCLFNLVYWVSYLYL

Molecule	Detection of metabolite in brain samples [1]	Detection of metabolite in serum [1]	GABAAR potentiation [2]	GABAAR potentiation ([2]; mean ± SEM)
COc1cc(C2Oc3cc(O)cc(O)c3C(=O)C2O)cc(O)c1O (stereo not drawn) [3′-Me-DHM, 3′-O-methyl-dihydromyricetin]	trace levels	detected		
COc1c(O)cc([C@H]2Oc3cc(O)cc(O)c3C(=O)[C@@H]2O)cc1O (racemic) [4′-Me-DHM, 4′-O-methyl-dihydromyricetin]	trace levels	detected	−12.6%	
O=C1c2c(O)cc(O)cc2OC(c2cc(O)cc(O)c2)C1O (stereo not drawn) [4′-DeOH-DHM, 4′-dehydroxy-dihydromyricetin]		detected; also recorded: trace levels	+5.2%	+5.3 ± 2.0
COc1cc(C2Oc3cc(O)cc(OC4OC(C(=O)O)C(O)C(O)C4O)c3C(=O)C2O)cc(O)c1O (stereo not drawn) [G-3′-Me-DHM, glucuronide-3′-O-methoxy-dihydromyricetin]		detected		
COc1c(O)cc(C2Oc3cc(O)cc(OC4OC(C(=O)O)C(O)C(O)C4O)c3C(=O)C2O)cc1O (stereo not drawn) [G-4′-Me-DHM]		detected		
glucuronide-dehydroxy-dihydromyricetin [G-DeOH-DHM]		detected		
O=C1c2c(OC3OC(C(=O)O)C(O)C(O)C3O)cc(O)cc2OC(c2cc(O)c(O)c(O)c2)C1O (stereo not drawn) [G-DHM, glucuronide-dihydromyricetin]		detected		

Source: paper PMC8307506, “Identification of Dihydromyricetin and Metabolites in Serum and Brain Associated with Acute Anti-Ethanol Intoxicating Effects in Mice” (International Journal of Molecular Sciences, 2021)
